# Laboratory results taken from US7645610B2, “Hepatocyte precursor cell lines” (Massachusetts Institute of Technology, priority 2002, dated 2010).
# Tests used:
# Format in all cases: cell-based, rat
# Lig-15 cells = test: Colony formation efficiency, Lig-15
# Lig-9 cells [1] = test: Fc(t) assay for asymmetric cell kinetics, Lig-9
# Description: To initiate the assay, 100 cells were plated in 75-cm^2 flasks. After a 16-hour growth period, pairs of new daughter cells were identified under the microscope, and their positions marked for serial examination. Thereafter, the marked microcolonies were examined at roughly ⅓ GT intervals for at least 2 generations. At each examination, the fraction of cells that divided during the previous interval was calculated as described (Sherley et al., 1995a). The estimated cell GT of examined lines was determined simultaneously as described (Sherley et al., 1995ab).
# A previously described serial colony formation analyses (the “Fc[t] assay”; Sherley et al., 1995a) was used to quantify the degree of asymmetric cell kinetics by Xs-derived cell lines. The Fc(t) assay quantifies the accumulation rate of cells in micro-colonies examined by serial phase microscopy at intervals of less than one GT from the 2-cell stage (Sherley et al., 1995a). Fc(t) is calculated by summing the fractions of dividing cells determined in each interval and dividing by the total number of GTs examined. When cells divide with symmetric kinetics, the value of Fc(t) approaches 1.0, regardless of the length of the examination period. For asymmetric kinetics, in which one non-dividing daughter is produced at each cell division, Fc(t) is a declining flnction that approaches […] with increasing exam time. […]
# conventional cell lines = test: Growth of conventional cell lines with Xs; settings: even when the Xs concentration was doubled (data not shown)
# Source text: (§1) There was a marked difference in the cell kinetics properties of early passage conventional lines (Lig-1 to -3 in Table 1) and Xs-derived lines (Lig-4 to -15 in Table 1). […] The estimated mean increase in colony formation efficiency for Xs-derived cell lines in Xs-supplemented medium was 11-fold (n=8), ranging from a 10% increase to a 40-fold increase (Lig-13 in Table 1; p<0.0001). The growth of conventional cell lines was unaffected by Xs even when the Xs concentration was doubled (data not shown).
# Lig-13 cells [2] = test: Differentiation marker expression, Xs-free vs Xs-supplemented, Lig-13; set-up: key: −: no expression detected; +/−: weak expression; +: expression detected; !: increased expression in Xs-free conditions; *: no increased expression in Xs-free conditions
# Description: To prepare cell lysates, cells were cultured until 95% confluent. After washing once with ice cold PBS, the cells were solubilized on ice in ice-cold lysis buffer (RIPA buffer; Hinds et al., 1987). The cell lysates were clarified by centrifugation at 13,000 rpm (Eppendorf™ microfuge) for 30 minutes at 4°0 C. and stored at −70°0 C. until further analysis. Soluble protein in lysates was quantified using the Bio-Rad DC™ assay. Twenty micrograms of cell lysates or 25 μl of culture medium samples were separated by SDS-PAGE (8-12% polyacrylamide) and analyzed for specific proteins by the following immunoblot procedure. Electrophoresed proteins were transferred to Hybond ECL membranes in Tris-Glycine-Methanol buffer (25 mM Tris-HCl, pH 7.5, 190 mM glycine, 20% methanol) for 1 hour at 100 volts at room temperature. Membranes were then stained with Ponceau S (0.5%) to verify uniform protein transfer and then blocked with Tris-buffered saline, 5% non-fat dried milk, 0.1% Tween-20 at room temperature for 1 hour. Following three 10-minute washes at room temperature in Tris-buffered saline, 0.1% Tween-20, the membranes were incubated with the specific primary antibodies diluted appropriately in Tris-buffered saline, 1% milk, 0.1% Tween-20 for 12-15 hours at 4° C. For albumin detection, membranes were incubated with an anti-albumin-HRP antibody (EY Laboratories) for 1 hour at room temperature. After removal of the unbound antibodies with three 10-minute washes in Tris-buffered saline-0.1% Tween-20, the membranes (except for albumin detection) were incubated with the anti-goat-HRP (1:2000) or anti-mouse HRP (1:5000) for 1 hour at room temperature. After three 10-minute washes with Tris-buffered saline-0.1% Tween-20, specifically bound HRP-conjugated antibodies were detected using the Amersham Enhanced Chemiluminescence Plus™ system. To re-probe a membrane with a different antibody, it was first incubated for 2.5 h in 0.1M glycine (pH 2.5) at room temperature. Immunohistochemical staining was performed with HRP-conjugated secondary antibodies as recommended by the supplier of primary detection antibodies. [table]
# Xs-derived cell lines = test: Colony formation efficiency, Xs-derived lines as a group; settings: n=8
# Source text: as §1, with “shown). [table]” for “shown).”
# Lig-8 cells [3] = test: Colony formation efficiency, Lig-8
# Lig-2 cells = test: Colony formation efficiency, Lig-2
# Lig-8 cells [4] = test: Daughter pair analysis (DPA), Lig-8; settings: Xs added, 16% in the absence of Xs, n=58 pairs
# Description: (§2) Into 10-cm diameter culture dishes, an estimated 1750 cells were plated in DMEM-10% dFBS, supplemented at the Xs concentration used for derivation, and cultured for 16 hours. Medium was then replaced with either Xs-free medium or medium containing 100 μM Xs, and cells were cultured for an additional 48 h (GT=60 h). Bromo-5-deoxyuridine (BrdU) was then added to the cultures to a concentration of 5 μM for 5 hours. Detection of incorporated BrdU was performed using primary antibody Bu1-75 (Harlan), and a biotinylated secondary antibody (Vector Laboratories) with avidin-fluorescein visualization. Nuclei were detected by staining with 0.5 μg/ml DAPI (Molecular Probes). Images were captured using a Nikon TE300 microscope, Orca camera, and Openlab software (Improvision). The assay is called a “daughter pair analysis” (DPA). To perform the DPA, cells were plated in Xs-containing medium at microcolony density. After allowing 4 to 5 hours for cell adherence, parallel cultures were replaced with fresh medium that was either Xs-supplemented or Xs-free. After allowing time for cell divisions to produce “daughter pairs”, the cells were cultured for 4 hours with the thymidine analogue bromodeoxyuridine (BrdU). Cells were then fixed and evaluated for BrdU incorporation by in situ immunofluorescence.
# Lig-6 cells = test: Colony formation efficiency, Lig-6
# Lig-7 cells = test: Colony formation efficiency, Lig-7
# Lig-3 cells [5] = test: Differentiation marker expression, Xs-free conditions, Lig-3; set-up: key: −: no expression detected; +/−: weak expression; +: expression detected; !: increased expression in Xs-free conditions; *: no increased expression in Xs-free conditions; settings: in situ immunofluorescence, confluent growth arrest in 1% serum 1-2 weeks
# Lig-8 cells [6] = test: Differentiation marker expression, Xs-free vs Xs-supplemented, Lig-8; set-up: key: −: no expression detected; +/−: weak expression; +: expression detected; !: increased expression in Xs-free conditions; *: no increased expression in Xs-free conditions
# Lig-13 cells [7] = test: Daughter pair analysis (DPA), Lig-13; settings: independent of Xs concentration
# Description: as §2
# Lig-9 cells [8] = test: Colony formation efficiency, Lig-9
# Lig-1 cells [9] = test: Colony formation efficiency, Lig-1
# Lig-14 cells = test: Colony formation efficiency, Lig-14
# Lig-3 cells [10] = test: Colony formation efficiency, Lig-3
# Lig-4 cells = test: Colony formation efficiency, Lig-4
# Lig-1 cells [11] = test: Differentiation marker expression, Xs-free conditions, Lig-1; set-up: key: −: no expression detected; +/−: weak expression; +: expression detected; !: increased expression in Xs-free conditions; *: no increased expression in Xs-free conditions; settings: in situ immunofluorescence, confluent growth arrest in 1% serum 1-2 weeks
# Lig-13 cells [12] = test: Colony formation efficiency, Lig-13
# [13] = in situ immunofluorescence, confluent growth arrest in 1% serum 1-2 weeks
# [14] = 50 μM xanthosine, 200 cells per well, 14 days
# [15] = colony formation efficiency, 50 μM xanthosine vs Xs-free
structure (smiles),measurement,setting,value
"O=c1[nH]c(=O)c2ncn([C@@H]3O[C@H](CO)[C@@H](O)[C@H]3O)c2[nH]1 [Xs, Xanthosine]",Colony formation efficiency Xs+ (Mean % ± SD; n = 6),"Lig-15 cells; Lig-15 (derived in 200 μM Xs), 50 μM xanthosine, 200 cells per well, 14 days",10 ± 1.6%
same,Xs+/Xs− Ratio,"Lig-15 cells; Lig-15, colony formation efficiency, 50 μM xanthosine vs Xs-free",5.3
same,effect of Xs on terminal division fraction,Lig-9 cells [1]; 100 μM Xs,did not significantly affect
same,Terminal Division Fraction,"Lig-9 cells [1]; Xs+, 2-cell microcolonies with no division in 5 days, Xs− 0.58",0.47
same,growth of conventional cell lines with Xs,conventional cell lines,unaffected
same,"Albumin (ALB) expression, change in Xs-free conditions",Lig-13 cells [2]; immunoblot,+*
same,"Cytokeratin 7 (CK7) expression, change in Xs-free conditions",Lig-13 cells [2]; immunoblot,+!
same,"α1-Antitrypsin (AAT) expression, change in Xs-free conditions",Lig-13 cells [2]; immunoblot,+/−*
same,"α-Fetoprotein (AFP) expression, change in Xs-free conditions",Lig-13 cells [2]; immunoblot,+*
same,"H.4 expression, change in Xs-free conditions",Lig-13 cells [2]; [13],+/−*
same,estimated mean increase in colony formation efficiency in Xs-supplemented medium,Xs-derived cell lines,11 fold
same,Colony formation efficiency Xs+ (Mean % ± SD; n = 6),"Lig-8 cells [3]; Lig-8 (derived in 400 μM Xs), 50 μM xanthosine, 200 cells per well, 14 days",22 ± 3.6%
same,Xs+/Xs− Ratio,"Lig-8 cells [3]; Lig-8, colony formation efficiency, 50 μM xanthosine vs Xs-free",17
same,Colony formation efficiency Xs+ (Mean % ± SD; n = 6),Lig-2 cells; [14],29 ± 3.7%
same,Xs+/Xs− Ratio,Lig-2 cells; [15],1.0
same,fraction of double-BrdU(+) daughter pairs,Lig-8 cells [4],76%
same,Colony formation efficiency Xs+ (Mean % ± SD; n = 6),"Lig-6 cells; Lig-6 (derived in 400 μM Xs), 50 μM xanthosine, 200 cells per well, 14 days",5.3 ± 1.8%
same,Xs+/Xs− Ratio,"Lig-6 cells; Lig-6, colony formation efficiency, 50 μM xanthosine vs Xs-free",1.4
same,Colony formation efficiency Xs+ (Mean % ± SD; n = 6),"Lig-7 cells; Lig-7 (derived in 400 μM Xs), 50 μM xanthosine, 200 cells per well, 14 days",6.7 ± 2.2%
same,Xs+/Xs− Ratio,"Lig-7 cells; Lig-7, colony formation efficiency, 50 μM xanthosine vs Xs-free",≧22
same,"H.4 expression, change in Xs-free conditions",Lig-3 cells [5],+/−*
same,"Albumin (ALB) expression, change in Xs-free conditions",Lig-8 cells [6]; immunoblot,+!
same,"Cytokeratin 7 (CK7) expression, change in Xs-free conditions",Lig-8 cells [6]; immunoblot,+*
same,"α1-Antitrypsin (AAT) expression, change in Xs-free conditions",Lig-8 cells [6]; immunoblot,+!
same,"α-Fetoprotein (AFP) expression, change in Xs-free conditions",Lig-8 cells [6]; immunoblot,+!
same,"H.4 expression, change in Xs-free conditions",Lig-8 cells [6]; [13],+!
same,fraction of symmetric BrdU(+) daughter pairs,Lig-13 cells [7],76%
same,Colony formation efficiency Xs+ (Mean % ± SD; n = 6),"Lig-9 cells [8]; Lig-9 (derived in 400 μM Xs), 50 μM xanthosine, 200 cells per well, 14 days",11 ± 2.6%
same,Xs+/Xs− Ratio,"Lig-9 cells [8]; Lig-9, colony formation efficiency, 50 μM xanthosine vs Xs-free",1.1
same,Colony formation efficiency Xs+ (Mean % ± SD; n = 6),Lig-1 cells [9]; [14],9.8 ± 2.2%
same,Xs+/Xs− Ratio,Lig-1 cells [9]; [15],0.9
same,Colony formation efficiency Xs+ (Mean % ± SD; n = 6),"Lig-14 cells; Lig-14 (derived in 200 μM Xs), 50 μM xanthosine, 200 cells per well, 14 days",0.4 ± 0.67%
same,Xs+/Xs− Ratio,"Lig-14 cells; Lig-14, colony formation efficiency, 50 μM xanthosine vs Xs-free",1.3
same,Colony formation efficiency Xs+ (Mean % ± SD; n = 6),Lig-3 cells [10]; [14],18 ± 3.7%
same,Xs+/Xs− Ratio,Lig-3 cells [10]; [15],1.0
same,Colony formation efficiency Xs+ (Mean % ± SD; n = 6),"Lig-4 cells; Lig-4 (derived in 400 μM Xs), 50 μM xanthosine, 200 cells per well, 14 days",8.0 ± 1.1%
same,Xs+/Xs− Ratio,"Lig-4 cells; Lig-4, colony formation efficiency, 50 μM xanthosine vs Xs-free",1.5
same,"H.4 expression, change in Xs-free conditions",Lig-1 cells [11],+*
same,Colony formation efficiency Xs+ (Mean % ± SD; n = 6),"Lig-13 cells [12]; Lig-13 (derived in 200 μM Xs), 50 μM xanthosine, 200 cells per well, 14 days",12 ± 2.7%
same,Xs+/Xs− Ratio,"Lig-13 cells [12]; Lig-13, colony formation efficiency, 50 μM xanthosine vs Xs-free",40
same,increase in colony formation efficiency in Xs-supplemented medium,"Lig-13 cells [12]; Lig-13, p<0.0001",40 fold
